Data: ChEMBL document CHEMBL4184246 (Bioorg Med Chem Lett, 2018)
Active and inactive are the calls of the source. The calls are words filed in the database; no cut-off is given here.

Assays:
Assay type in all cases: functional, cell-based
A549 [1] = experiment: Increase in DR5 protein expression in human A549 cells at 13 uM incubated for 4 days in presence of 200 U/ml IFNalpha by Western blot analysis
A549 [2] = experiment: Growth inhibition of human A549 cells incubated for 6 days in absence of 400 U/ml IFNalpha by MTS assay; conditions: A549, 144 h
A549 [3] = experiment: Induction of apoptosis in human A549 cells assessed as increase in PARP cleavage at 13 uM incubated for 4 days in absence of 200 U/ml IFNalpha by Western blot analysis
A549 [4] = experiment: Growth inhibition of human A549 cells incubated for 6 days in presence of 400 U/ml IFNalpha by MTS assay; conditions: A549, 144 h
OVCAR-3 [5] = experiment: Growth inhibition of human OVCAR3 cells incubated for 7 days in absence of 400 U/ml IFNalpha by MTS assay; conditions: OVCAR-3, 168 h
A549 [6] = experiment: Growth inhibition of human A549 cells at 13 uM incubated for 4 days in presence of 200 U/ml IFNalpha and in absence of 30 nM 14-3-3zeta siRNA by MTS assay
A549 [7] = experiment: Growth inhibition of human A549 cells at 13 uM incubated for 4 days in presence of 200 U/ml IFNalpha and 30 nM 14-3-3zeta siRNA by MTS assay
OVCAR-3 [8] = experiment: Growth inhibition of human OVCAR3 cells incubated for 7 days in presence of 400 U/ml IFNalpha by MTS assay; conditions: OVCAR-3, 168 h
A549 [9] = experiment: Induction of apoptosis in human A549 cells assessed as increase in PARP cleavage at 13 uM incubated for 4 days in presence of 200 U/ml IFNalpha by Western blot analysis
A549 [10] = experiment: Increase in DR5 protein expression in human A549 cells at 13 uM incubated for 4 days in absence of 200 U/ml IFNalpha by Western blot analysis
A549 [11] = experiment: Growth inhibition of human A549 cells at 14 uM incubated for 4 days in presence of 200 U/ml IFNalpha and 30 nM 14-3-3zeta siRNA by MTS assay
A549 [12] = experiment: Increase in DR5 protein expression in human A549 cells at 14 uM incubated for 4 days in presence of 200 U/ml IFNalpha by Western blot analysis
A549 [13] = experiment: Induction of apoptosis in human A549 cells assessed as increase in PARP cleavage at 14 uM incubated for 4 days in presence of 200 U/ml IFNalpha by Western blot analysis
A549 [14] = experiment: Growth inhibition of human A549 cells at 14 uM incubated for 4 days in presence of 200 U/ml IFNalpha and in absence of 30 nM 14-3-3zeta siRNA by MTS assay
A549 [15] = experiment: Increase in DR5 protein expression in human A549 cells at 14 uM incubated for 4 days in absence of 200 U/ml IFNalpha by Western blot analysis
A549 [16] = experiment: Induction of apoptosis in human A549 cells assessed as increase in PARP cleavage at 14 uM incubated for 4 days in absence of 200 U/ml IFNalpha by Western blot analysis

Structure (SMILES) | Activity (A549 [1]) | EC50 (A549 [2]) [µM] | Activity (A549 [3]) | EC50 (A549 [4]) [µM] | EC50 (OVCAR-3 [5]) [µM] | growth inhibition (GI) (A549 [6]) | growth inhibition (GI) (A549 [7]) | EC50 (OVCAR-3 [8]) [µM] | Activity (A549 [9]) | Activity (A549 [10]) | growth inhibition (GI) (A549 [11]) | Activity (A549 [12]) | Activity (A549 [13]) | growth inhibition (GI) (A549 [14]) | Activity (A549 [15]) | Activity (A549 [16])
COC[C@H]1O[C@H](O[C@@H]2C3=C(C(C)C)CC[C@]3(C)/C=C3\[C@@H](CC[C@]3(O)COC)[C@@H](C)[C@H]2O)[C@H](O)[C@H]2O[C@H]3O[C@]21O[C@@]3(C)[C@@H]1CO1 | Active | 125 | inactive | 17 | 40 | Active | inactive | 4.6 | Active | Active | – | – | – | – | – | –
COC[C@@]1(O)CC[C@@H]2/C1=C\[C@@]1(C)CCC(C(C)C)=C1[C@@H](O[C@H]1O[C@@H]3COC(C)(C)O[C@H]3[C@H](O)[C@H]1O)[C@H](O)[C@@H]2C | – | > 200 | – | 11 | > 200 | – | – | 3.3 | – | – | inactive | Active | Active | Active | Active | –
COC[C@H]1CC[C@@H]2/C1=C\[C@@]1(C)CCC(C(C)C)=C1[C@@H](O[C@H]1O[C@@H]3COC(C)(C)O[C@H]3[C@H](O)[C@H]1O)[C@H](O)[C@@H]2C | – | 33 | – | 27 | 29 | – | – | 18 | – | – | – | – | – | – | – | inactive
COC[C@@]1(OC)CC[C@@H]2/C1=C\[C@@]1(C)CCC(C(C)C)=C1[C@@H](O[C@H]1O[C@@H]3COC(C)(C)O[C@H]3[C@H](O)[C@H]1O)[C@H](O)[C@@H]2C | – | 170 | – | > 40 | 140 | – | – | > 40 | – | – | – | – | – | – | – | –
